Assay results reported in PMC10216478, “Development of a Non-Peptide Angiotensin II Type 1 Receptor Ligand by Structural Modification of Olmesartan as a Biased Agonist” (Biomedicines, 2023).
Changes are numbered by the printed parent chain.

Tests used:
[1] = target: T1, AT1 Q257A receptor (Rattus norvegicus, UniProt P25095, Q257A); test: IP production assay in COS7 cells expressing AT1-Q257A receptor; assay type: cell-based; settings: 1 µM ligands or 0.1 µM Ang II, 30 min, n = 5, vs. (-)
T1 construct: expressed in transfected cells; host or cells: COS7
T1 sequence (P25095 1-359 Q257A): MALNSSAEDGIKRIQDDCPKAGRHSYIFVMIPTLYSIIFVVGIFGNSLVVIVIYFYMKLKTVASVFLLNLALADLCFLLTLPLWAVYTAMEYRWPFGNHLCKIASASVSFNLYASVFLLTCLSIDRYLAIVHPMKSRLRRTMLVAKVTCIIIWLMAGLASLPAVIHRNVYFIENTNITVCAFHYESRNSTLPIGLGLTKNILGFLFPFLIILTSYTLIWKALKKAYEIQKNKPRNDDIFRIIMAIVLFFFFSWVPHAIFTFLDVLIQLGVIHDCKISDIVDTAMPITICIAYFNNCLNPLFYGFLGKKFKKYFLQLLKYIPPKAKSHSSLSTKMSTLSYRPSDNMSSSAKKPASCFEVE
Procedure: (§1) The synthetic rat AT1 receptor gene, which was cloned in the shuttle expression vector pMT-2, was used for expression and mutagenesis, as described previously. […] In the experiments, cells were grown without a cell-growth supplement. To express the AT1 receptor protein, 10 µg of purified plasmid DNA per 10^7 cells was used in the transfection. Wild-type and mutated AT1 receptors were transiently transfected into cells using Lipofectamine 2000 liposomal reagent (Roche Applied Science, Penzberg, Germany). Cells were plated and grown and were 70–90% confluent at the time of transfection. We incubated plasmid DNA (10 µg)–lipid (10 µL) complexes for 5 min at room temperature and added and incubated the complexes with cells for 24 h. We then analyzed the parameters in transfected cells. […] Transfected cells that had been cultured for 48–72 h were harvested. Cell membranes were prepared using the nitrogen Parr bomb disruption or freeze–thaw methods.
(§2) Ligand (such as agonist or antagonist)-induced IP production through the AT1 receptor in transfected COS7 cells transiently expressing the AT1 receptor was measured to evaluate cell signaling as a second messenger for controlling blood pressure, since the increases in the intracellular Ca^2+ concentration were the result of IP accumulation, which indicated vasoconstriction. As a surrogate model with higher levels of AT1 receptor expression, COS7 cells are suitable for IP measurement because it is easy to detect differences in IP production. Cells were labeled for 24 h with [^3H]-myoinositol at 37 °C in DMEM containing 10% FBS. Next, the cells were washed with buffer 3 times and incubated with a medium containing 10 mM LiCl for 20 min; 0.1 µM Ang II or 1 µM ligands were added and incubation was continued for another 30 min at 37 °C. After incubation, the medium was removed, and total soluble IP was extracted from the cells using the perchloric acid extraction method, as described previously. Cells were plated at a field density of 5 × 10^3 cells/cm^2 in 60 mm dishes and cultured in a fresh growth medium at 37 °C in a DMEM 5% CO2 incubator. […] The culture medium was changed 48 h after transfection and 1.5 mL of 1 μCi/mL of [^3H]-myoinositol was added to each 60-mm dish at 37 °C in DMEM containing 10% FBS. After labeling, the cells were washed with buffer 3 times and incubated with a medium containing 10 mM LiCl for 20 min. The indicated concentration of ligands was added and incubation was continued for an additional 30 min at 37 °C. After incubation, the medium was removed, and total soluble IP was extracted from the cells using the perchloric acid extraction method. Total IP production was expressed as the sum of radioactivity, as described previously.

[2] = target: T1, AT1 Q257A receptor; test: Immunoblotting of ERK 1/2 activation in COS7 cells overexpressing AT1-Q257A receptor; assay type: cell-based; settings: 1 µM ligands or 0.1 µM Ang II, 10 min, n = 5, vs. (-)
Procedure: as §1, with “Cell membranes were prepared using the nitrogen Parr bomb disruption or freeze–thaw methods.” left out
In in vitro studies, ERK 1/2 activation by 1 µM ligands or 0.1 µM Ang II incubated for 10 min was measured using COS7 cells that overexpressed AT1 wild-type and mutant receptors. ERK activity was measured in cells maintained for 18 h in DMEM containing 0.1% serum. […] We homogenized the cells in lysis buffer plus protease inhibitors and determined the protein concentration using the bicinchoninic acid method. […] The signal was independently quantified by digital image analysis (ImageJ, National Institutes of Health, Bethesda, MD, USA).

[3] = target: T2, AT1 L112A receptor (Rattus norvegicus, UniProt P25095, L112A); test: Immunoblotting of ERK 1/2 activation in COS7 cells overexpressing AT1-L112A receptor; assay type: cell-based; settings: 1 µM ligands or 0.1 µM Ang II, 10 min, n = 5, vs. (-)
T2 construct: expressed in transfected cells; host or cells: COS7
T2 sequence (P25095 1-359 L112A): T1 sequence (P25095 1-359 Q257A) with L112A, A257Q
Procedure: as §1
(§3) In in vitro studies, ERK 1/2 activation by 1 µM ligands or 0.1 µM Ang II incubated for 10 min was measured using COS7 cells that overexpressed AT1 wild-type and mutant receptors. ERK activity was measured in cells maintained for 18 h in DMEM containing 0.1% serum. At the end of the stimulation, the culture medium was removed by aspiration, the cells were washed with ice-cold phosphate-buffered saline, and the dishes were frozen in liquid nitrogen. The cells were scraped using a scraper after melting, and the scraped cells were transferred to a tube. We homogenized the cells in lysis buffer plus protease inhibitors and determined the protein concentration using the bicinchoninic acid method. […] We fractionated total proteins using sodium dodecyl sulfate polyacrylamide gel electrophoresis; we then transferred the proteins to a Hybond nitrocellulose membrane and blocked the blotted membranes with 10% bovine serum albumin in tris-buffered saline buffer (50 mM Tris–HCl pH 7.6, 150 mM NaCl) for 1 h at room temperature. […] An enhanced chemiluminescent substrate system (Amersham, Buckinghamshire, UK) was used. The signal was independently quantified by digital image analysis (ImageJ, National Institutes of Health, Bethesda, MD, USA).

[4] = target: T2, AT1 L112A receptor; test: IP production assay in COS7 cells expressing AT1-L112A receptor; assay type: cell-based; settings: 1 µM ligands or 0.1 µM Ang II, 30 min, n = 5, vs. (-)
Procedure: as §1, §2

[5] = target: T3, AT1 wild-type receptor (Rattus norvegicus, UniProt P25095); test: Immunoblotting of ERK 1/2 activation in COS7 cells overexpressing AT1 wild-type receptor; assay type: cell-based; settings: AT1 wild-type receptor, COS7 cells; 1 µM ligands or 0.1 µM Ang II, 10 min; n = 5; vs. (-)
T3 construct: expressed in transfected cells; host or cells: COS7
T3 sequence (P25095 1-359): T1 sequence (P25095 1-359 Q257A) with A257Q
Procedure: as §1, §3

[6] = target: T3, AT1 wild-type receptor; test: IP production assay in COS7 cells expressing AT1 wild-type receptor; assay type: cell-based; settings: AT1 wild-type receptor, COS7 cells; 1 µM ligands or 0.1 µM Ang II, 30 min; n = 5; vs. (-)
Procedure: as §1, §2

[7] = system: human coronary artery smooth muscle cells; set-up: method as in PMID 15785012; settings: as well as a stably expressed AT1 receptor cell line; cited from earlier work
[8] = system: AT1 receptor; set-up: method as in PMID 15785012; settings: cited from earlier work

Substance	Effect on IP production [1]	ERK1/2 activation [2]	ERK1/2 activation [3]	Effect on IP production [4]	ERK1/2 activation [5]	Effect on IP production [6]	Gq-independent ERK 1/2 activation [7]	Gq-dependent inositol phosphate (IP) production [8]
angiotensin II [Ang II, reference compound]	significantly increased IP production	significantly activated ERK1/2	significantly activated ERK1/2	significantly increased IP production	significantly activated ERK1/2	significantly increased IP production		
[Sar^1, Ile^4, Ile^8]Ang II							still activated	did not increase
